Values of other authors as cited in patent US20070281996A1, “Creatine prodrugs, compositions and uses thereof” (XenoPort, Inc., priority 2006, published 2007).

Experiments:
[1] = healthy volunteers, oral creatine administration (Dechent et al.)
[2] = following oral creatine supplementation

CN(CC(=O)O)C(=N)N [creatine, Creatine]
increase of cerebral creatine phosphate [1]: about 10%
duration of increase in tissue creatine phosphate levels [2]: > 14 days
